Biological target: T1, SYK (Homo sapiens, UniProt P43405)
T1 construct: 2.5 nM SYK, 400 nM Biotin-Aha-Aha-KEDPDYEWPSAKK and 10 μM ATP
Test: SYK Flash Plate Assay (enzyme assay)
Assay type: biochemical
Procedure: The kinase assay is performed either as 384-well Flashplate assay (for e.g. Topcount measurement) or as 384-well Image-Flashplate assay (for LEADseeker measurement).
2.5 nM SYK, 400 nM Biotin-Aha-Aha-KEDPDYEWPSAKK and 10 μM ATP (spiked with 0.3 μCi 33P-ATP/well) are incubated in a total volume of 50 μl (60 mM Hepes, 10 mM MgCl2, 1.2 mM Dithiothreitol, 0.02% Brij35, 0.1% BSA, pH 7.5) with or without test compound for 1 hours at 30° C. The reaction is stopped with 25 μl 200 mM EDTA. After 30 Min at 30° C. the liquid is removed and each well washed thrice with 100 μl 0.9% sodium chloride solution. Non-specific reaction is determined in presence of 0.1 μM Staurosporine. Radioactivity is measured with Topcount (when using Flashplates) or with LEADseeker (when using Image-Flashplates) respectively. Results (e.g. IC50-values) are calculated with program tools provided by the IT-department (e.g. Symyx Assay Explorer, Genedata Screener).

Structure (SMILES)	IC50 [µM]
COc1ccc(C(N)=O)cc1-c1cc2nccc(-c3cc(S(N)(=O)=O)ccc3OC)c2o1 [Compound A77, 4-methoxy-3-[7-(2-methoxy-5-sulfamoyl-phenyl)-furo[3,2-b]pyridin-2-yl]-benzamide]	0.3 to 3
COc1cc(-c2cc3nccc(-c4cccc(C(=O)NCC(C)(C)N)c4)c3o2)cc(OC)c1OC [Compound A32, N-(2-amino-2-methyl-propyl)-3-[2-(3,4,5-trimethoxy-phenyl)-furo[3,2-b]pyridin-7-yl]-benzamide]	3 to 50
COc1cc(-c2cc3nccc(-c4cccc(C(=O)N[C@H]5CCCC[C@H]5O)c4)c3o2)cc(OC)c1OC [Compound A11, N-((1S,2R)-2-hydroxy-cyclohexyl)-3-[2-(3,4,5-trimethoxy-phenyl)-furo[3,2-b]pyridin-7-yl]-benzamide]	0.3 to 3
COc1cc(-c2cc3nccc(-c4cc(F)cc(C(=O)NCCCN)c4)c3o2)cc(OC)c1OC [Compound A61, N-(3-amino-propyl)-3-fluoro-5-[2-(3,4,5-trimethoxy-phenyl)-furo[3,2-b]pyridin-7-yl]-benzamide]	3 to 50
COc1cc(-c2cc3nccc(-c4cccc(C(=O)N[C@@H]5CCCC[C@@H]5NS(C)(=O)=O)c4)c3o2)cc(OC)c1OC [Compound A33, N-((1R,2S)-2-methanesulfonylamino-cyclohexyl)-3-[2-(3,4,5-trimethoxyphenyl)-furo[3,2-b]pyridin-7-yl]-benzamide]	3 to 50
COc1ccc(C(N)=O)cc1-c1cc2nccc(-c3ccnc(N[C@H]4CCCC[C@H]4N)c3)c2o1 [Compound A96, 3-{7-[2-((1S,2R)-2-amino-cyclohexylamino)-pyridin-4-yl]-furo[3,2-b]pyridin-2-yl}-4-methoxy-benzamide]	< 0.1

The remaining lines, values ahead:

IC50 [µM]	Structure (SMILES)
0.1 to 0.3	COc1cc(-c2cc3nccc(-c4nnc(CCCN)[nH]4)c3o2)cc(OC)c1OC [Compound A108, 3-{5-[2-(3,4,5-trimethoxy-phenyl)-furo[3,2-b]pyridin-7-yl]-4H-[1,2,4]triazol-3-yl}-propylamine]
3 to 50	COc1cc(-c2cc3nccc(NCC4CCCNC4)c3o2)cc(OC)c1OC (stereo not drawn) [Compound A2, Piperidin-3-ylmethyl-[2-(3,4,5-trimethoxy-phenyl)-furo[3,2-b]pyridin-7-yl]-amine]
0.3 to 3	COc1cc(O)ccc1-c1cc2nccc(-c3cccc(C(=O)N[C@@H]4CCCC[C@@H]4N)c3)c2o1 [Compound A15, N-((1R,2S)-2-amino-cyclohexyl)-3-[2-(4-hydroxy-2-methoxy-phenyl)furo[3,2-b]pyridin-7-yl]-benzamide]
0.3 to 3	COc1ccc(CNCCN)cc1-c1ccnc2cc(-c3cc(OC)c(OC)c(OC)c3)oc12 [Compound A4, N1-{4-methoxy-3-[2-(3,4,5-trimethoxy-phenyl)-furo[3,2-b]pyridin-7-yl]-benzyl}-ethane-1,2-diamine]
0.3 to 3	COc1cc(O)ccc1-c1cc2nccc(-c3ccc4[nH]cnc4c3)c2o1 [Compound A14, 4-[7-(1H-benzoimidazol-5-yl)-furo[3,2-b]pyridin-2-yl]-3-methoxy-phenol]
3 to 50	COCC(O)CNC(=O)c1cccc(-c2ccnc3cc(-c4cc(OC)c(OC)c(OC)c4)oc23)c1 (stereo not drawn) [Compound A16, N-(2-hydroxy-3-methoxy-propyl)-3-[2-(3,4,5-trimethoxy-phenyl)-furo[3,2-b]pyridin-7-yl]-benzamide]
< 0.1	COc1ccc(C#N)cc1-c1cc2nccc(-c3cc[nH]n3)c2o1 [Compound A88, 4-methoxy-3-[7-(1H-pyrazol-3-yl)-furo[3,2-b]pyridin-2-yl]-benzonitrile]
0.3 to 3	COc1ccc([C@H](C)N)cc1-c1ccnc2cc(-c3cc(OC)c(OC)c(OC)c3)oc12 [Compound A101, (S)-1-{4-methoxy-3-[2-(3,4,5-trimethoxy-phenyl)-furo[3,2-b]pyridin-7-yl]-phenyl}-ethylamine]
0.3 to 3	COc1ccc(C(N)=O)cc1-c1cc2nccc(-c3cc(C(=O)NCCN)ccc3OC)c2o1 [Compound A79, 3-[7-[5-(2-aminoethylcarbamoyl)-2-methoxy-phenyl]furo[3,2-b]pyridin-2-yl]-4-methoxy-benzamide]

From US20150038527A1, “FUROPYRIDINE DERIVATIVES” (Merck Patent GmbH, priority 2012, published 2015)
